Data reported in US20250381206A1, “INVARIANT NATURAL KILLER T-CELL ACTIVATORS” (Deciduous Therapeutics, Inc., priority 2022, published 2025).

How the values were obtained:
[1] = molecular target: T1, human iTCR (Homo sapiens, UniProt P15813); test: In vitro activation of human iTCR through a Jurkat reporter cell line (JiNKT, GFP under NFKB promoter) co-cultured with compound-loaded BWSTIM cells; format: cell-based; details: percentage of JiNKT cells expressing high levels of GFP by flow cytometry; BWSTIM loaded 4 hours, co-cultured 18 to 24 hours
T1 sequence (P15813 1-335): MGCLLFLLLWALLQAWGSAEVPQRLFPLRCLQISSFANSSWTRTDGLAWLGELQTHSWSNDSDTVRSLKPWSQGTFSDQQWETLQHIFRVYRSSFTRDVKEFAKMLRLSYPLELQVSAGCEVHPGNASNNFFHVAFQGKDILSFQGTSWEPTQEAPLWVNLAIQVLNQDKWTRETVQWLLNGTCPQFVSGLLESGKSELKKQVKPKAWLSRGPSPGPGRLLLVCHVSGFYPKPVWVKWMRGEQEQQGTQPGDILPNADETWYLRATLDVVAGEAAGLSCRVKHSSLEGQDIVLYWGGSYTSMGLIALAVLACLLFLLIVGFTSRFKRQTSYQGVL
Text: To determine the human iTCR activation potential induced by the compounds described herein, a Jurkat cell line (JiNKT) was transfected with the human iTCR, and GFP under the NFKB promoter (cell line licensed from the Medical University of Vienna). A BWS147 cell line (BWSTIM) was also transfected with CD80 and CD1d to act as the antigen-presenting cell.
Any of the compounds provided herein may be used in this example, including the exemplary compounds of Tables 1 and 2. Test compounds were dissolved in DMSO at a 5 mg/mL stock solution. BWSTIM cells were loaded with test compounds at varying concentrations for 4 hours at 37° C. at a concentration of 20k cells/well in 200 μL of media in a u-bottom 96 well dish. BWSTIM cells were washed 2× with media, then incubated with JiNKT cells at a concentration of 80k cells/well in a u-bottom 96 well dish. Cells were co-cultured for 18 to 24 hours. The percentage of cells expressing high levels of GFP was measured through flow cytometry (after gating out the mCD45+ BWSTIM cells).

[2] = system: C57BL/6J mice; test: In vivo IFNγ activation and iNKT cell expansion in C57BL/6J mice; parameters: species or system mouse; details: 2 μg I.P.; for Naïve Mouse In Vivo IFNγ: average serum IFNγ by ELISA, twenty hours post-injection, eight weeks old C57BL/6J mice; for Naïve Mouse In Vivo CD3 + iNKT + cells (Fold increase over veh control): iNKT cells within splenocytes by flow cytometry, four days post-injection, C57BL/6J mice
Experimental: Any of the compounds provided herein may be used in this example, including the exemplary compounds of Tables 1 and 2. To determine the expansion induced by the compounds described herein, test compounds were injected into C57BL/6J mice. Serum IFNγ levels and the expansion of iNKT cells within splenocytes was measured 4 days post-IP injection.
Eight weeks old C57BL/6J mice were injected (I.P.) with 2 μg of test compounds. The test compounds were either dissolved in DMSO at a 5 mg/mL stock solution, or formulated into liposomes through thin-film rehydration, then extrusion through 200 nm filters. Liposome-based formulations were constructed using soy phosphatidylcholine, cholesterol, and test compound in a 2:1:0.15 ratio. Twenty hours post-injection, blood was collected from the tail to measure the level of serum IFNγ using an ELISA kit from Biolegend. Four days post-injection, the mice were sacrificed and the splenocytes were isolated. The percentage of iNKT cells within the spleens was measured using flow cytometry, selecting for live cells and mouse CD1d-α-GalCer tetramer+ cells.
In response to injection of several exemplary compounds, the average serum IFNγ collected and fold change of cells are shown in Table B4 below.

Row | Structure (SMILES) | EC50 [1] | Naïve Mouse In Vivo IFNγ [2] | Naïve Mouse In Vivo CD3 + iNKT + cells (Fold increase over veh control) [2]
1 | CCCCCCCCCCCCCCC[C@@H](O)[C@H](CO[C@H]1O[C@H](CO)[C@H](O)[C@H](O)[C@H]1O)NC(=O)CCCCCCCCCCCCCCCCCCCCCCCC12CC(F)(C1)C2 [Compound I-2, 24-(3-fluorobicyclo[1.1.1]pentan-1-yl)-N-((2S,3R)-3-hydroxy-1-(((2S,3R,4S,5R,6R)-3,4,5-trihydroxy-6-(hydroxymethyl)tetrahydro-2H-pyran-2-yl)oxy)octadecan-2-yl)tetracosanamide] | 1780 nM | 8128 ± 1209 pg/mL | 2.21 ± 0.38 Fold increase over veh control
2 | CCCCCCCCCCCCCC[C@@H](O)[C@@H](O)[C@H](CO[C@H]1O[C@H](COC(=O)CCc2ccccc2)[C@H](O)[C@H](O)[C@H]1O)NC(=O)CCCCCCCCCCCCCCCCCCCCCCCC12CC(F)(C1)C2 [Compound I-3, ((2R,3R,4S,5R,6S)-6-(((2S,3S,4R)-2-(24-(3-fluorobicyclo[1.1.1]pentan-1-yl)tetracosanamido)-3,4-dihydroxyoctadecyl)oxy)-3,4,5-trihydroxytetrahydro-2H-pyran-2-yl)methyl 3-phenylpropanoate] | 908 nM | 8506 ± 790 pg/mL | 1.12 ± 0.19 Fold increase over veh control
3 | CCCCCCCCCCCCCCC[C@@H](O)[C@H](CC[C@H]1O[C@H](COC(=O)CCc2ccccc2)[C@H](O)[C@H](O)[C@H]1O)NC(=O)CCCCCCCCCCCCCCCCCCCCCCCC12CC(F)(C1)C2 [Compound I-4, ((2R,3R,4R,5R,6R)-6-((3S,4R)-3-(24-(3-fluorobicyclo[1.1.1]pentan-1-yl)tetracosanamido)-4-hydroxynonadecyl)-3,4,5-trihydroxytetrahydro-2H-pyran-2-yl)methyl 3-phenylpropanoate] | 621 nM | 28208 ± 4723 pg/mL | 4.09 ± 0.78 Fold increase over veh control
4 | CCCCCCCCCCCCCCC[C@@H](O)[C@H](CO[C@H]1O[C@H](COC(=O)CCc2ccccc2)[C@H](O)[C@H](O)[C@H]1O)NC(=O)CCCCCCCCCCCCCCCCCCCCCCCC1CCS(=O)(=O)CC1 [Compound I-6, ((2R,3R,4S,5R,6S)-6-(((2S,3R)-2-(24-(1,1-dioxidotetrahydro-2H-thiopyran-4-yl)tetracosanamido)-3-hydroxyoctadecyl)oxy)-3,4,5-trihydroxytetrahydro-2H-pyran-2-yl)methyl 3-phenylpropanoate] | 797 nM | 43930 ± 43396 pg/mL | 1.89 ± 0.44 Fold increase over veh control
5 | CCCCCCCCCCCCCC[C@@H](O)[C@@H](O)[C@H](CC[C@H]1O[C@H](CO)[C@H](O)[C@H](O)[C@H]1O)NC(=O)CCCCCCCCCCCCCCCCCCCCCCCC12CC(F)(C1)C2 [Compound I-7, N-((3S,4S,5R)-4,5-dihydroxy-1-((2R,3R,4R,5R,6R)-3,4,5-trihydroxy-6-(hydroxymethyl)tetrahydro-2H-pyran-2-yl)nonadecan-3-yl)-24-(3-fluorobicyclo[1.1.1]pentan-1-yl)tetracosanamide] | 1180 nM |  | 
